The values that follow are results of earlier work, collected in publication PMC4424193 (European journal of drug metabolism and pharmacokinetics, 2014).

For data set [1] the following is noted: ref Dirikolu (2009); for Cmax: horse serum.
For data set [2] the following is noted: man, single oral 50 mg dose, 24 hr urine collections; ref Chung (1994).
A further data set concerns the target FAK. The following applies: binding studies; ref Kurenova et al. 2013.
The conditions of data set [3]: rats, single intragastric 50 mg/kg in 2% starch suspension; ref Kaverina (1983).
For data set [4] the following is noted: rat, after 24 hrs; ref Yeh 1990.
The conditions of data set [5]: humans, ref Yeh et al. 1986; for Cmax: at 0.5 hrs post-dose.
The mark [6] stands for this setting: CD1 mice, 44.6 mg/kg IP C4 free base, ref Thudium 2011.

SMILES strings stand for the structures. Like-named read-outs stand apart in the source and are kept apart here.

Broadly, the Cmax is the peak of the concentration-time curve. As usually defined, the Tmax is the time from dosing to the highest level. With `COc1ccc(CN(CCN(C)C)c2ccccn2)cc1` [Pyrilamine, pyrilamine], the maximum concentration (Cmax) is listed as 280 ng/mL in data set [1] (IV 300 mg/horse, at 5 minutes) and 36.6 ng/mL in data set [1] (oral 300 mg/horse). For the same molecule, the “half-life (t½)” value in data set [1] (horse, IV 300 mg/horse) was 1.67 h. Moreover, in data set [1] (horse, either route of administration (IV, oral)), the “detection in serum at 24 hrs” value is listed as “not detected”. Besides, the Tmax in data set [1] (horse, oral 300 mg/horse) is 0.44 h. Also, the “parent compound in urine” value in data set [2] is listed as “no parent compound was observed in the urine”.

As for `CN(C)CCN(Cc1ccc(Cl)cc1)c1ccccn1` [C4, N-[(4-chlorophenyl)-methyl]-N-[2-(dimethylamino)-ethyl]-pyridin-2-amine], under setting [6], the “plasma Cmax (mean)” value is 820 ng/mL and the “time of peak plasma concentration” value is 0.67 h. Further, the T½ (mice, 44.6 mg/kg free base IV dose, ref Thudium (2011)) is 0.83 ± 0.34 h. Moreover, under “mice, 44.6 mg/kg free base, ref Thudium (2011)”, the 24 hr concentration was 0 µg/mL. Besides, under “mice, oral vs IP routes of administration, previously determined”, the Bioavailability is 15.5%. Moreover, the Cmax (mouse IV, ref Thudium (2011)) was 820 ng/mL. At FAK, the “C4 to FAK dissociation constant (Kd)” value was 0.165 µg/mL. Further, in data set [3], the Cmax was 370 ng/mL, the T½ was 14.9 h and the “serum concentration at 24 hrs (mean)” value was 160 ± 10 ng/mL.

What is called t½ is the time needed for the level to fall by half in the phase considered. As for `CN(C)CCN(Cc1ccccc1)c1ccccn1` [tripelennamine], in data set [4], the “dose recovered unchanged in urine” value is reported as 2-3%. Besides, the results for the Cmax in data set [5] (50 mg intramuscular) and in data set [5] (100 mg intramuscular) were 105 ng/mL and 194 ng/mL, respectively. Also, the t½ in data set [5] (50 mg intramuscular) was 2.9 ± 0.25 h; in data set [5] (100 mg intramuscular), 4.4 ± 1.3 h.
